Test: recombinant UMI read abundance after kanamycin selection (control-corrected) (log10(CPM+1)); higher = more efficient recombination; extreme values may be limits of the assay; sequences stand for … in AGTGCAGAGAAAATCGGCCAGTTTTCTCTGCCTGCAGTCCGCATGCCGTGGGACCCCTTGGGTTCTAACCTGTTGCCTAGATTTATGCAGCGGACTGCCTTTCTCCCAAAGTGATAAACCGG…AGGTTGGTTTCACT; site = the 11-nt donor
Description: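 Pooled E. coli donor-specificity screen for the IS621 bridge recombinase. Each library member carries a reprogrammed 11-nt donor and a full-length LE bridge RNA expressed in cis from the natural promoter, with a paired donor-binding loop (8-nt LDG + 4-nt RDG) and a target-binding loop fixed to T5. It is co-electroporated with a T5 target plasmid; recombinase is induced with 0.07 mM IPTG and recombinants are selected on kanamycin. UMIs are counted as CPM, averaged over two biological replicates and corrected by the unselected control. Molecule = full bridge RNA written as DNA, built from the T5 scaffold: LDG = donor specificity nt 1-8, RDG = reverse complement of nt 8-11.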
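Further: IS621 bridge recombinase in Escherichia coli cells against a fixed T5 target plasmid.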

Sequence	recombinant UMI read abundance (log10)
ACGAAGCCATGGACCGGTTTTCCCGGTAATCCGTATTTGGG (site CCGAAGCCTCC)	0.00571
ACGAAGCCATGGACCGGTTTTCCCGGTAATCCGTATTTGGG (site GCGAAGCCTCC)	0.0145
ACGAAGCCATGGACCGGTTTTCCCGGTAATCCGTATTTGGG (site TCGAAGCCTCC)	0.113
ACGACGCCATGGACCGGTTTTCCCGGTAATCCGTATTTGCT (site ACGACGCCTAG)	0
ACGAGAACATGGACCGGTTTTCCCGGTAATCCGTATTTGCC (site ACGAGAACTGG)	2.44
ACGAGTTCATGGACCGGTTTTCCCGGTAATCCGTATTTGGA (site ACGAGTTCTTC)	2.41
ACGATAGCATGGACCGGTTTTCCCGGTAATCCGTATTTGTC (site ACGATAGCTGA)	2.92
ACGATGACATGGACCGGTTTTCCCGGTAATCCGTATTTGCA (site ACGATGACTTG)	3.16
ACGATGACATGGACCGGTTTTCCCGGTAATCCGTATTTGCA (site AGGAAGACTTG)	0.907
ACGCACGCATGGACCGGTTTTCCCGGTAATCCGTATTTGGG (site AAGCACGCTCC)	0.0265
ACGCACGCATGGACCGGTTTTCCCGGTAATCCGTATTTGGG (site ACGCACGCTCC)	0.00911
ACGCACGCATGGACCGGTTTTCCCGGTAATCCGTATTTGGG (site AGGCACGCTCC)	0.00698
ACGCACGCATGGACCGGTTTTCCCGGTAATCCGTATTTGGG (site ATGCACGCTCC)	0.12
ACGCCACCATGGACCGGTTTTCCCGGTAATCCGTATTTGGG (site ACGCCACCTCC)	0.011
ACGCCTCCATGGACCGGTTTTCCCGGTAATCCGTATTTGTG (site ACGCCTCCTCA)	0.0426
ACGCGCACATGGACCGGTTTTCCCGGTAATCCGTATTTGCG (site ACGCGCACTCG)	1.97
ACGGCCCCATGGACCGGTTTTCCCGGTAATCCGTATTTGTG (site ACGGCCCCTCA)	0.0276
ACGGCCGCATGGACCGGTTTTCCCGGTAATCCGTATTTGAA (site ACGGCCGCTTT)	1.43
ACGGCGTCATGGACCGGTTTTCCCGGTAATCCGTATTTGGT (site ACGGCGTCTAC)	2.01
ACGGGACCATGGACCGGTTTTCCCGGTAATCCGTATTTGTC (site ACGGGACCTGA)	0
ACGGGCGCATGGACCGGTTTTCCCGGTAATCCGTATTTGTT (site ACGGGCGCTAA)	1.39
ACGGTAGCATGGACCGGTTTTCCCGGTAATCCGTATTTGCA (site ACAGTATCTTG)	2.05
ACGGTAGCATGGACCGGTTTTCCCGGTAATCCGTATTTGCA (site ACGGTAGCTTG)	2.74
ACGTAGCCATGGACCGGTTTTCCCGGTAATCCGTATTTGCC (site ACGTAGCCTGG)	0.17
ACGTCACCATGGACCGGTTTTCCCGGTAATCCGTATTTGTA (site ACGTCACCTTA)	0.0617
ACGTGCACATGGACCGGTTTTCCCGGTAATCCGTATTTGGG (site ACGTGCACTCC)	0.0159

Sequence	recombinant UMI read abundance (log10)
ACGTGGCCATGGACCGGTTTTCCCGGTAATCCGTATTTGAG (site ACGTGGCCTCT)	0.0124
ACGTGTACATGGACCGGTTTTCCCGGTAATCCGTATTTGTT (site ACGTGTACTAA)	1.47
ACGTGTTCATGGACCGGTTTTCCCGGTAATCCGTATTTGAC (site ACGTGTTCTGT)	2.1
ACGTTCCCATGGACCGGTTTTCCCGGTAATCCGTATTTGTG (site AAGTTCCCTCA)	0.0189
ACGTTCCCATGGACCGGTTTTCCCGGTAATCCGTATTTGTG (site ACGTTCCCTCA)	0.0247
ACGTTCCCATGGACCGGTTTTCCCGGTAATCCGTATTTGTG (site AGGTTCCCTCA)	0.0827
ACGTTCCCATGGACCGGTTTTCCCGGTAATCCGTATTTGTG (site ATGTTCCCTCA)	0.0196
ACGTTTACATGGACCGGTTTTCCCGGTAATCCGTATTTGCT (site ACGTTTACTAG)	2.06
ACGTTTACATGGACCGGTTTTCCCGGTAATCCGTATTTGCT (site CCGTTTACTAG)	1.53
ACGTTTACATGGACCGGTTTTCCCGGTAATCCGTATTTGCT (site GCGTTTACTAG)	0.666
ACGTTTACATGGACCGGTTTTCCCGGTAATCCGTATTTGCT (site TCGTTTACTAG)	1.37
ACGTTTGCATGGACCGGTTTTCCCGGTAATCCGTATTTGTC (site ACGTTTGCTGA)	1.45
ACTAAGTCATGGACCGGTTTTCCCGGTAATCCGTATTTGAG (site ACTAAGTCTCT)	2.46
ACTACACCATGGACCGGTTTTCCCGGTAATCCGTATTTGCC (site ACTACACCTGG)	0
ACTACAGCATGGACCGGTTTTCCCGGTAATCCGTATTTGAC (site ACTACAGCTGT)	2.36
ACTACCCCATGGACCGGTTTTCCCGGTAATCCGTATTTGAC (site ACTACCCCTGT)	0.736
ACTAGAACATGGACCGGTTTTCCCGGTAATCCGTATTTGGG (site ACTAGAACTCA)	0.0109
ACTAGAACATGGACCGGTTTTCCCGGTAATCCGTATTTGGG (site ACTAGAACTCC)	0.113
ACTAGAACATGGACCGGTTTTCCCGGTAATCCGTATTTGGG (site ACTAGAACTCG)	0.00448
ACTAGAACATGGACCGGTTTTCCCGGTAATCCGTATTTGGG (site ACTAGAACTCT)	0.0325
ACTAGAACATGGACCGGTTTTCCCGGTAATCCGTATTTGTG (site ACTAGAACTCA)	1.35
ACTAGAACATGGACCGGTTTTCCCGGTAATCCGTATTTGTG (site ACTAGAACTCC)	0.0298
ACTAGAACATGGACCGGTTTTCCCGGTAATCCGTATTTGTG (site ACTAGAACTCG)	0.285
ACTAGAACATGGACCGGTTTTCCCGGTAATCCGTATTTGTG (site ACTAGAACTCT)	0
ACTAGTGCATGGACCGGTTTTCCCGGTAATCCGTATTTGGA (site ACTAGTGCTAC)	0
ACTAGTGCATGGACCGGTTTTCCCGGTAATCCGTATTTGGA (site ACTAGTGCTCC)	0.0115

From the supplement of paper PMC11208160
